Experimental data as given in US12673038B2, “Antimycotic methoxyflavone and fluconazole combination for inhibiting cryptococcus” (Karl-Franzens-Universität Graz, priority 2019, dated 2026).

System: C. albicans
Experiment: In vitro antifungal activity of flavone in combination with azoles, growth via OD490
Assay type: cell-based, Candida albicans
Details: OD490, flavone plus azole vs each alone
With `COc1ccc2c(=O)cc(-c3ccccc3)oc2c1` [7-MF, 7-methoxyflavone] the “enhancement of the antifungal activity of azoles in the presence of the flavone” value (shortened to “enhancement”) was “enhancement of the antifungal activity”.
For `O=c1cc(-c2ccccc2)oc2c1ccc1ccccc12` [7,8-BF, 7,8-benzoflavone], the “enhancement” value was “enhancement of the antifungal activity”.
With `COc1cc(OC)c2c(=O)cc(-c3ccc(OC)c(OC)c3)oc2c1` [3′,4′,5,7-TMF, 3′,4′,5,7-tetrametoxyflavone] the “enhancement” value was “enhancement of the antifungal activity”.
For `COc1ccccc1-c1cc(=O)c2ccccc2o1` [2′-MF, 2′-methoxyflavone], the “enhancement” value was “enhancement of the antifungal activity”.
With `COc1cc(-c2cc(=O)c3c(OC)c(OC)c(OC)cc3o2)cc(OC)c1OC` [3′,4′,5′,5,6,7-HMF, 3′,4′,5′,5,6,7-hexymethoxyflaovne] the “enhancement” value was “enhancement of the antifungal activity”.
With `O=c1cc(-c2ccccc2)oc2ccc3ccccc3c12` [5,6-BF, 5,6-benzoflavone] the “enhancement” value was “enhancement of the antifungal activity”.

System: fungi including Aspergillus and Fusarium species
Experiment: not given
Details: Weidenbörner et al., Mycol. Res. 101 (1997); cited from earlier work
For `O=c1cc(-c2ccccc2)oc2ccccc12` [flavone], the antifungal effect is listed as “displays an antifungal effect”.
